Source: patent publication US9051300B2, “Herbicides” (Syngenta Limited, priority 2009, dated 2015)

How the values were obtained:
Assay type in all cases: in vivo
[1] = tested on: Alopecurus myosuroides (ALOMY); assay: Post-emergence herbicidal activity, glasshouse pot test; settings: 312 h, evaluated after 13 days, 100=total damage to plant, 0=no damage
Description: (§1) Seeds of a variety of test species are sown in standard soil in pots. After cultivation for one day (pre-emergence) or after 8 days cultivation (post-emergence) under controlled conditions in a glasshouse (at 24/16° C., day/night; 14 hours light; 65% humidity), the plants are sprayed with an aqueous spray solution derived from the formulation of the technical active ingredient in acetone/water (50:50) solution containing 0.5% Tween 20 (polyoxyethylene sorbitan monolaurate, CAS RN 9005-64-5). The test plants are then grown in a glasshouse under controlled conditions in a glasshouse (at 24/16° C., day/night; 14 hours light; 65% humidity) and watered twice daily. After 13 days for pre and post-emergence, the test is evaluated (100=total damage to plant; 0=no damage to plant). Lolium perenne (LOLPE), Alopecurus myosuroides (ALOMY), Echinochloa crus-galli (ECHCG), Avena fatua (AVEFA) Post-Emergence Activity

[2] = tested on: Echinochloa crus-galli (ECHCG); assay: as above; settings: 312 h, evaluated after 13 days, 100=total damage to plant, 0=no damage
Description: as §1

[3] = tested on: Avena fatua (AVEFA); assay: as above; settings: 312 h, evaluated after 13 days, 100=total damage to plant, 0=no damage
Description: as §1

[4] = tested on: Lolium perenne (LOLPE); assay: as above; settings: 312 h, evaluated after 13 days, 100=total damage to plant, 0=no damage
Description: as §1

[5] = tested on: Winter Wheat variety 'Hereward'; assay: Crop damage to winter wheat, post-emergence spray; settings: 250 g/ha, no safener, evaluated after 13 days, 100=total damage to plant, 0=no damage
Description: Seeds of the Winter Wheat variety ‘Hereward’ were sown in standard soil in pots. After 8 days cultivation under controlled conditions in a glasshouse (at 24/16° C., day/night; 14 hours light; 65% humidity), the plants were sprayed post-emergence with an aqueous spray solution derived from the formulation of the technical active ingredient in acetone/water (50:50) solution containing 0.5% Tween 20 (polyoxyethylene sorbitan monolaurate, CAS RN 9005-64-5). The test plants were then grown in a glasshouse under controlled conditions in a glasshouse (at 24/16° C., day/night; 14 hours light; 65% humidity) and watered twice daily. After 13 days for pre and post-emergence, the test was evaluated (100=total damage to plant; 0=no damage to plant).

[6] = tested on: Winter Wheat variety 'Hereward'; assay: Crop damage to winter wheat seed treated with safener cloquintocet mexyl, post-emergence spray; settings: 250 g/ha, seed treated with cloquintocet mexyl 0.5 g/kg seed, evaluated after 13 days, 100=total damage, 0=no damage
Description: Seeds of the Winter Wheat variety ‘Hereward’ were seed treated with a wettable powder formulation of the cereal herbicide safener, cloquintocet mexyl, at a rate of 0.5 grams per kilogram of dry seed prior to the initiation of glasshouse testing. One seed was sown per 1.5 inch plastic pot into a sandy loam soil at a depth of 1 cm, 8 days prior to application of the test compounds and was watered and grown under controlled conditions in a glasshouse (at 24/16° C., day/night; 14 hours light; 65% humidity). The plants were sprayed post-emergence with an aqueous spray solution derived from the formulation of the technical active ingredient in acetone/water (50:50) solution containing 0.5% Tween 20 (polyoxyethylene sorbitan monolaurate, CAS RN 9005-64-5). The test plants were then grown in a glasshouse under controlled conditions in a glasshouse (at 24/16° C., day/night; 14 hours light; 65% humidity) and watered twice daily. After 13 days for pre and post-emergence, the test was evaluated (100=total damage to plant; 0=no damage to plant).

[7] = tested on: Alopecurus myosuroides (ALOMY); assay: Pre-emergence herbicidal activity, glasshouse pot test; settings: rate not printed (columns shifted), evaluated after 13 days, 100=total damage to plant, 0=no damage
Description: as §1, with “Pre-Emergence” for “Post-Emergence”

[8] = tested on: Echinochloa crus-galli (ECHCG); assay: as above; settings: rate not printed (columns shifted), evaluated after 13 days, 100=total damage to plant, 0=no damage
Description: as §1, with “Pre-Emergence” for “Post-Emergence”

[9] = tested on: Avena fatua (AVEFA); assay: as above; settings: rate not printed (columns shifted), evaluated after 13 days, 100=total damage to plant, 0=no damage
Description: as §1, with “Pre-Emergence” for “Post-Emergence”

[10] = tested on: Lolium perenne (LOLPE); assay: as above; settings: rate not printed (columns shifted), evaluated after 13 days, 100=total damage to plant, 0=no damage
Description: as §1, with “Pre-Emergence” for “Post-Emergence”

Compound	pest or weed control at 250 g/ha [1] [%]	pest or weed control at 250 g/ha [2] [%]	pest or weed control at 250 g/ha [3] [%]	pest or weed control at 250 g/ha [4] [%]	Winter Wheat (Hereward) (damage to plant) [5]	Winter Wheat (Hereward) + cloquintocet mexyl (damage to plant) [6]	Pre-Emergence Activity ALOMY (damage to plant) [7]	Pre-Emergence Activity ECHCG (damage to plant) [8]	Pre-Emergence Activity AVEFA (damage to plant) [9]	Pre-Emergence Activity LOLPE (damage to plant) [10]
Cc1sc(-c2ccc(Cl)cc2)cc1C1C(=O)C/C(=C\C2CCOCC2)C1=O (centres unmarked) [Compound A10]	20	70	0	10	–	–	–	–	–	–
Cc1sc(-c2ccc(Cl)cc2)nc1C1C(=O)C/C(=C\c2ccoc2)C1=O (centres unmarked) [Compound A11]	10	80	0	0	–	–	–	–	–	–
Cc1sc(-c2ccc(Cl)cc2)nc1C1C(=O)CC(Cc2ccc(F)cn2)C1=O (centres unmarked) [Compound A12]	100	100	90	100	70	80	100	100	90	100
Cc1sc(-c2ccc(Cl)cc2)nc1C1C(=O)C/C(=C\c2ccc(F)cn2)C1=O (centres unmarked) [Compound A13]	10	20	10	0	–	–	–	–	–	–
Cc1sc(-c2ccc(Cl)cc2)nc1C1C(=O)C/C(=C/c2ccccn2)C1=O (centres unmarked) [Compound A15]	10	20	0	0	10	0	–	–	–	–
Cc1sc(-c2ccc(Cl)cc2)nc1C1C(=O)CC(Cc2ccccn2)C1=O (centres unmarked) [Compound A16]	90	100	100	100	60	60	90	100	80	90
Cc1sc(-c2ccccc2)nc1C1C(=O)CC(CC2CCOCC2)C1=O (centres unmarked) [Compound A17]	90	100	90	100	60	40	70	100	50	100
Cc1sc(-c2ccc(Cl)cc2)nc1C1C(=O)CC(CC2CCOCC2)C1=O (centres unmarked) [Compound A18]	100	100	100	100	80	90	80	100	90	100
Cc1ccc2c(cnn2C)c1C1C(=O)CC(CC2CCOCC2)C1=O (centres unmarked) [Compound A19]	20	40	10	0	–	–	–	–	–	–
